The values below come from patent US20070225213A1, “Nucleic acid carriers for delivery of therapeutic agents” (priority 2006, published 2007).

The subject of series [1] is human MCF-7 cells. Kind of series: Visually scored toxicity of NAC-MTN / NAC-DOX at fixed loading (Example 3). It is filed as cell-based. Conditions: 5.6 ug/ml final drug; 5.1% drug loading; 16 hour incubation. The protocol:
Toxicity of NAC-MTN or NAC-DOX, at 50, 16.9, 5.6, and 1.9 ug/ml final drug concentration and 5.1 % drug loading in human MCF-7 cells. Sample A: 15 mg of HSDNA (EX031804A) was combined with 0.76 mg MTN(mw 517.4) or (sample B) 0.76 mg DOX (mw 579.99) to give 152 ug/ml final drug and 5.1% loading in 5 ml final vol. Samples C, D were MTN, or DOX only controls at equivalent final [drug] without HSDNA. Sample E was HSDNA, no drug and sample F was H2O only. MCF-7 cells were trypsinized and plated out previously. Triplicate samples were diluted 0.1 ml in 0.2 ml 1× media to give 3× fold serial dilution in 0.2 ml final. After 16 hour incubation the cells were visually inspected for signs of toxicity. Toxicity was scored as the following: 50%=one half all cells rounded, un-adhered or crenated.

For series [2], the system named is BHK21. Put plainly: Toxicity of NAC-MTN vs CD-MTN and MTN, MTT (Example 9, EX042105). In kind it is cell-based, hamster. The protocol: (§1) FIG. 4. […] The relative toxicity of NAC-MTN was compared with MTN and CD-MTN in four cell lines, MCF7(breast cancer), COS7green monkey kidney (SV40 transformed), 3T3 (mouse fibroblast), and BHK21(hamster kidney). Cells were treated with identical amounts of MTN formulated as either NAC-MTN, MTN only, or poly-beta-cyclodextrin-sulfylbutylether(CD-MTN). After an incubation period, cell viability was assayed with MTT assay. The differences in toxicity between NAC-MTN and MTN or NAC-MTN and CD-MTN are shown as % difference. Greater percentage difference correlates to more reduction in relative NAC-MTN toxicity.
(§2) MCF7, COS7, 3T3, and BHK21 cells were plated out in duplicate rows of equivalent cell density in 100ul final volume. Initial cell densities were 2000 cells/well.
(§3) Preparing NAC-MTN, CD-MTN, and MTN only. Combined 180 ul of 0.05 mg/ml MTN with […] 0.1 mg/ml herring sperm genomic DNA (HSGDNA, Promega), 1500 ul of 2× DMEM media containing 20% FBS to give 3.0 ml final volume and 12% final drug loading in the dsDNA. For MTN only, 180 ul of MTN was combined with 1320 ul H2O and 1500 ul 2× DMEM. […]
(§4) Aspirated media in plate and replaced with 50 ul of 0.5 mg/ml MTT in 1× media, incubated 3 hours, aspirated, air dried 5 min and dissolved in 100 ul of isopropyl, read OD at A570. […]

The test system of series [3] is MCF7 cells. Kind of series: Drug loading vs toxicity at fixed [drug], MTT viability assay (Example 4). In kind it is cell-based, human. Conditions: Drug only, without carrier; 0.058 mM MTN; 72 hours. The protocol:
FIG. 1. […] NAC-MTN or NAC-DOX were prepared at different weight:weight % of drug:nucleic acid and incubated in cells. For each sample and corresponding % loading, the total drug was held constant at 0.058 mM MTN or 0.1 mM DOX. After incubation in cells, cell viability was assayed via mitochondrial dehydrogenase activity against 3-[4,5-dimethylthiazol-2-yl]-2,5-diphenyl tetrazolium bromide (MTT) and reported as % toxicity relative to untreated cells.
Mitoxantrone (MTN, Sigma Aldrich) and Doxorubicin HCl (DOX) were diluted in HBSS to 1 mg/ml final. DNA, from degraded herring sperm DNA <40 bp (HSDNA, Sigma Aldrich), was prepared in water at 10 mg/ml. The drug was diluted in water or HBSS first, followed by addition of the DNA, in order to prevent precipitation. Precipitation of drug was especially a concern at 40% loading of MTN, which is the loading limit for HSDNA (degraded) and so the DNA is added slowly to the diluted MTN (the reverse addition leads to precipitation). All NAC-MTN formulation stocks were prepared at 0.15 mg/ml final MTN, and different concentration of DNA in order to give 15, 25, and 35.7% final drug loading w/w % of MTN/DNA in 0.5 ml final volume. All NAC-DOX formulations were prepared at 0.3 mg/ml final DOX, and either 5, 10, or 15% loaded drug weight/weight % of DOX/DNA in 0.5 ml final volume. […]

Series [4] in a line: In vivo MTN recovery in mouse urine after single i.v. dose (Example 17).
Description: NAC-MTN or MTN alone was administered intravenously to mice via the tail vein. […] After 2 hours, NAC-MTN or MTN was detected in urine, quantified by absorbance at 665 nm, and reported as % of total.
Procedure. […] White mice, n=2 were tail vein injected with 0.25 ml of either NAC-MTN or MTN alone. […] MTN was quantified in mouse urine by absorbance of 0.2 ml sample at 665 nm, and converted to mg/ml using an MTN standard curve.
To determine if NAC-MTN was excreted in urine as a complex, MTN fluorescence due to unbound NAC was assayed by an addition method. DNA was added to urine from both groups and subsequent change in fluorescence was measured.
Series [5] concerns COS7. Put plainly: Toxicity of NAC-MTN vs CD-MTN and MTN, MTT (Example 9, EX042105). In kind it is cell-based, green monkey. The protocol:
as §1, §2, §3, §4

[6] abbreviates: 2 uM final MTN, MTT 48 hours after adding samples.
Setting [7] is: Elapsed Time 2.5 hr, 0.281 mg MTN i.v.

Consider `O=C1c2c(O)ccc(O)c2C(=O)c2c(NCCNCCO)ccc(NCCNCCO)c21` [MTN, mitoxantrone], for which the “Toxicity (visual score)” value in series [1] was 90%. Further, the “% tox. relative to media only” value in series [2] (setting [6]) stood at 51.76%; in series [5] (setting [6]), 56.65%. The “toxicity (est.)” value in series [2] (after 20-24 hour incubation with MTN, 2 uM) is on record as about 50%. For the same molecule, the “% Tox” value in series [3] came to 79%. Moreover, the entries for the “FLUOR. (mouse urine)” value in series [4] (setting [7]), in series [4] (Elapsed Time 5 hr) and in series [4] (Elapsed Time 8 hr) were 4086, 4405 and 4455, respectively. The “MTN % recov. in urine (% of total dose)” value came to 1.9% in series [4] (setting [7]), 1.6% in series [4] (Elapsed Time 5 hr) and 3.8% in series [4] (Elapsed Time 8 hr). For the same molecule, the toxic effect result in series [5] (after 24 hours, 2 uM MTN) was “no toxic effect”.
